Reference: article PMC5618421, “Anti-Inflammatory Effects of Curvularin-Type Metabolites from a Marine-Derived Fungal Strain Penicillium sp. SF-5859 in Lipopolysaccharide-Induced RAW264.7 Macrophages” (Marine Drugs, 2017)

What was measured:
Assay type in all cases: cell-based
[1] = tested on: NF-κB; assay: DNA binding activity of NF-κB in nuclear extracts (TransAM ELISA kit); details: pre-treated 3 h, LPS (1 μg/mL) 1 h
Protocol: (§1) Figure 3 Effects of 8 on NF-κB activation (nuclear-p50 and p65) (a), IκBα phosphorylation and degradation (b), and the DNA binding activity of NF-κB (c) in LPS-treated RAW264.7 macrophages. Cells were pre-treated with the indicated concentrations of 8 for 3 h and stimulated with LPS (1 μg/mL) for 1 h. Western blot analysis (IκBα and p-IκBα in the cytoplasm and NF-κB in the nucleus) was performed as described in the Materials and Methods. Representative blots from three independent experiments are shown. A commercially-available NF-κB ELISA kit (Active Motif) was used to test the nuclear extracts and determine the degree of NF-κB binding. The data shown represent the mean values of three independent experiments. * p < 0.05 compared with the group treated with LPS.
TransAM kit (Active Motif, Carlsbad, CA, USA) was used to estimate the DNA-binding activity of NF-κB in the nuclear extract according to the manufacturer’s instructions as described previously.

[2] = tested on: IL-6 (Il6); assay: RT-qPCR of IL-6 mRNA in LPS-stimulated RAW264.7 macrophages; details: pre-treated 3 h, LPS (1 μg/mL) 6 h
[3] = tested on: p38; assay: Western blot of p38 phosphorylation in LPS-treated RAW264.7 macrophages; details: pre-treated 3 h, LPS (1 μg/mL) 30 min
Protocol: (§2) Figure 4 Effects of 8 on p38 (a), JNK (b), and ERK (c) phosphorylation in RAW264.7 macrophages. Cells were pre-treated with the indicated concentrations of 8 for 3 h and stimulated for 30 min with LPS (1 μg/mL). Cell extracts were subjected to Western blotting with antibodies specific for phosphorylated-p38 (p-p38), phosphorylated JNK (p-JNK), or phosphorylated ERK1/2 (p-ERK). Membranes were stripped and re-probed to measure the total abundance of each MAPK as a control measurement. Representative blots from three independent experiments are shown.
(§3) The proteins of iNOS, COX-2, NF-κB, and MAPKs were measured by Western blot analysis. The details of procedures for Western blot analysis were described previously.

[4] = tested on: PGE2 production in LPS-treated RAW 264.7 macrophages; assay: Inhibition of PGE2 production (PGE2 ELISA kit) in LPS-treated RAW264.7 macrophages; details: Mus musculus, RAW264.7 macrophages pre-treated 3 h with compound, then LPS (1 μg/mL) 24 h
Protocol: All isolated compounds (1–9) were evaluated for their anti-inflammatory effects. […] NO is a small molecule which is an intracellular mediator produced in various immune cells. It plays a pivotal role in the physiological and pathological condition of inflammatory symptoms. PGE2 can also regulate the immune and inflammatory responses. In this study, RAW264.7 macrophages were pre-treated for 3 h in the medium containing non-toxic concentrations (Table 2) of each compound (1–9), and then LPS (1 μg/mL) was treated for 24 h. According to the LPS stimulation of RAW264.7 macrophages, production of NO and PGE2 was increased, and the effects of all compounds on the production level of NO and PGE2 were evaluated by the Griess reaction and a PGE2 kit, respectively. […] To evaluate the impact of phenol and resorcinol groups in the curvularin-type metabolites for the anti-inflammatory activity, 5-O-methyl and 5,7,-di-O-methyl derivatives of curvularin (3a and 3b, respectively), as well as 5-O-acetyl and 5,7,-di-O-acetyl derivatives of curvularin (3c and 3d, respectively), were prepared, and the structures of 3a–3d were identified by comparison the ^1H and ^13C-NMR spectroscopic data with those of curvularin (3), and confirmed by their HRESIMS. […] The position of the methoxy group in 3a was confirmed by HMBC correlation between methoxy signal at δH 3.77 (3H, s, 5-OCH3) and δC 161.8 (C-5). The NOESY cross-peaks between acetyl proton ([…]) with H-2, H-4, and H-16 of 3c were used to identify the position of the acetyl group in 3c. […] Further systematic investigations are needed to clarify the structure activity relationship associated with the modification of the aliphatic part of the molecule.
RPMI1640, fetal bovine serum (FBS), and other tissue culture reagents were purchased from Gibco BRL Co. (Grand Island, NY, USA). All other chemicals were obtained from Sigma-Aldrich Co. (St. Louis, MO, USA). Primary antibodies (COX-2: sc-1745; iNOS: sc-650; IκB-α: sc-371; p-IκB-α: sc-8404; p50: sc-7178; p65: sc-8008, Santa Cruz Biotechnology, Dallas, TX, USA, p-ERK: #9101; ERK: #9102; p-JNK: #9251; JNK: #9252S; p-p38: #9211; p38: 9212S, Cell Signaling Technology, Danvers, MA, USA) and secondary antibodies (mouse: ap124p; goat: ap106p; rabbit: ap132p, Millipore, Billerica MA, USA). Enzyme-linked immunosorbent assay (ELISA) kits for PGE2 were purchased from R and D Systems, Inc. (Minneapolis, MN, USA).

[5] = tested on: iNOS; assay: Western blot of iNOS protein expression in LPS-stimulated RAW264.7 macrophages; details: pre-treated 3 h, LPS 24 h
Excerpt: Therefore, we further tested whether inhibitory effects of 8 against NO and PGE2 productions are correlated with the protein expression of pro-inflammatory enzymes (i.e., iNOS and COX-2, respectively), which are known to catalyze the production of NO and PGEs in LPS-stimulated cells. […] Upon the stimulation by LPS, macrophages can also trigger the production of pro-inflammatory cytokines such as TNF-α, and ILs. The overproduction of these cytokines contributes to the pathogenesis of inflammatory diseases. Thus, we further evaluated the effects of 8 on the mRNA expression of pro-inflammatory cytokines in the LPS-induced cells. The cells were pre-treated with indicated concentration for 3 h, followed by LPS stimulation (1 μg/mL) for 6 h. The mRNA expression of pro-inflammatory cytokines was determined by RT-qPCR.
Figure 2 Effects of 8 on protein expression levels of iNOS and COX-2 (a), and mRNA expression levels of IL-1β (Il1b) (b), IL-6 (Il6) (c), and TNF-α (Tnf) (d) in RAW264.7 macrophages. The cells were pre-treated for 3 h with the indicated concentrations of 8 and stimulated for 24 h (a), and 6 h (b–d) with LPS (1 μg/mL). The measurement of western blot analysis and RNA quantification for Il1b, Il6, and Tnf expression were performed as described in the Materials and Methods. […]
The proteins of iNOS, COX-2, NF-κB, and MAPKs were measured by Western blot analysis. […]

[6] = tested on: IκB-α; assay: Western blot of cytosolic IκBα phosphorylation and degradation in LPS-treated RAW264.7 macrophages; details: pre-treated 3 h, LPS (1 μg/mL) 1 h
Protocol: as §1, §3
The proteins of nuclear NF-κB (p50 and p65) and cytosolic IκBα (p-IκBα and IκBα) were obtained by using cytosolic and nuclear fractions. The details of this procedure have been described previously.

[7] = tested on: c-Jun N-terminal kinase (JNK); assay: Western blot of JNK phosphorylation in LPS-treated RAW264.7 macrophages; details: pre-treated 3 h, LPS (1 μg/mL) 30 min
Protocol: as §2, §3

Question: Which “LPS-induced DNA binding activity of NF-κB” value [1] does the source give for `C[C@H]1CCC/C=C/C(=O)c2c(O)cc(O)cc2CC(=O)O1` [Compound 8, (10E,15S)-10,11-dehydrocurvularin] here?
Answer: declined

Question: And the “mRNA expression of IL-6” value [2]?
Answer: markedly suppressed the mRNA expression of IL-1β, IL-6, and TNF-α in a dose-dependent manner

Question: What about the “LPS-induced phosphorylation of p38” value [3] of the same compound?
Answer: did not suppress these phosphorylations

Question: What about the IC50 [4] of the same compound?
Answer: 2700 ± 400 nM

Question: What about the iNOS protein expression [5] of the same compound?
Answer: attenuation of the excessive protein expression of iNOS and COX-2 in a dose-dependent manner

Question: And the “degradation of IκB-α” value [6]?
Answer: blocked the degradation of IκB-α in a concentration-dependent manner

Question: And the “phosphorylation of IκB-α” value [6]?
Answer: attenuated this phosphorylation of IκB-α

Question: What about the “LPS-induced phosphorylation of JNK” value [7] of the same compound?
Answer: did not suppress these phosphorylations
